Data on 52 compounds can be found in PubChem BioAssay AID1996.

Converted amounts (≈) assume the structure as drawn. A value given as a limit tells only on which side of the number the result lay.

For the series the following is noted: buffer; pH 7.4; 200.0 µM.
One may read the kinetic solubility as solubility judged after dilution from a stock solution rather than from solid. `COC(=O)c1cc(C(=O)OCC(=O)Nc2ccc(N3CCOCC3)cc2)cc([N+](=O)[O-])c1` had a solubility (kinetic) of 11.8 µg/mL (≈ 26.6 µM). In turn, `O=C(Nc1cccnc1)OC1CCCC1` displayed a solubility (kinetic) of 29.5 µg/mL (≈ 143 µM). To `CO/N=C(\N)c1nonc1N` belongs 20.1 µg/mL (≈ 128 µM); to `CCOC(=O)/C(C)=C1\NC(C)(C)Cc2ccccc21.I`, 18.7 µg/mL; to `Cc1ccc2[nH]c3c(c2c1)CCN1C(=O)OC(C)(C)C31C` (configuration not stated), 10.4 µg/mL (≈ 36.6 µM). The figure for `CCOC(=O)CSc1nc(C)cc2c1C(=O)OC2` is 37.5 µg/mL (≈ 140 µM); for `Nc1ccc(S(=O)(=O)C(F)(F)F)cc1N` it is above 36 µg/mL; for `Cc1ccc(S(=O)(=O)N2CCN(C(=O)C3CCCO3)CC2)cc1` (configuration not stated) it is 49.8 µg/mL (≈ 147 µM). `CN(CC(=O)Nc1ccc(F)cc1)CC(=O)NC1CCCCC1` showed a solubility (kinetic) above 48.2 µg/mL. `CC1CN(C(=O)COC(=O)c2cccc(S(=O)(=O)N3CCc4ccccc43)c2)CC(C)O1` (configuration not stated) came in with a solubility (kinetic) of 15.3 µg/mL (≈ 33.4 µM). To `CCCCNc1cc(C(=O)O)cc(S(N)(=O)=O)c1Oc1ccccc1` belongs above 54.7 µg/mL. In the case of `Cc1nc(-c2ccc(C(=O)N3CCCC3)cc2)cs1`, the solubility (kinetic) was above 40.9 µg/mL. For `CCC(C)c1ccccc1NS(=O)(=O)c1cnn(CC)c1` (configuration not stated), the kinetic solubility was above 46.1 µg/mL. As for `COc1cc2c(cc1OC)/C(=C/C(=O)c1ccc(C)cc1)NCC2`, the kinetic solubility came to 24.8 µg/mL (≈ 76.7 µM). The figure for `CCOc1ccc(C(=O)Nc2ccccc2OC(F)F)cc1` is 6.1 µg/mL (≈ 19.9 µM); for `O=C(O)c1cccc(Nc2ccncc2[N+](=O)[O-])c1` it is above 38.9 µg/mL. Compound `CCCCN(C(=O)Oc1ccccc1)C1CCS(=O)(=O)C1` (configuration not stated) showed a kinetic solubility above 46.7 µg/mL. As to `CC(=O)c1cccc(NC(=O)COC(=O)CCNS(=O)(=O)c2ccccc2)c1`, the kinetic solubility is above 60.7 µg/mL. In turn, `COc1cc2ncnc(N[C@H](C)c3ccccc3)c2cc1OC` gave a kinetic solubility above 46.4 µg/mL.

On to `CC1CC(C)(C)NC(=S)N1CC(=O)NCc1ccc(F)cc1` (configuration not stated), for which the kinetic solubility came to 41.5 µg/mL (≈ 128 µM). As for `COCCn1c(C)cc(C(=O)COC(=O)CNC(=O)c2ccco2)c1C`, the solubility (kinetic) worked out at 45.2 µg/mL (≈ 125 µM). To `CN(c1ccccc1)c1nc(N)c([N+](=O)[O-])c(Nc2ccccc2F)n1` belongs below 0.1 µg/mL. To `NC(=O)CNC(=O)c1ccc(Cl)cc1` belongs above 31.9 µg/mL. To `O=C(NCCN1CCOCC1)c1ccc(Cl)cc1O` belongs above 42.7 µg/mL; to `COc1ccccc1N1CCN(CCCCN2C(=O)C3CCCCN3C2=O)CC1` (configuration not stated), 52.4 µg/mL (≈ 131 µM). Compound `COc1ccc(CCC(=O)OCC(=O)Nc2sccc2C#N)cc1` came in with a solubility (kinetic) of 22.9 µg/mL (≈ 66.5 µM). To `COc1ccc(CC(=O)NC(=S)Nc2cccc(CO)c2)cc1` belongs 49.3 µg/mL (≈ 149 µM). On to `Cc1ccc(NS(=O)(=O)c2ccc3c(c2)CCC(=O)N3)cc1`, for which the solubility (kinetic) was above 47.5 µg/mL. To `COc1ccc(Cl)cc1S(=O)(=O)NC(C)C(=O)NCc1ccccn1` (configuration not stated) belongs 52.8 µg/mL (≈ 138 µM).

Turning to `COc1ccc(C(=O)OCC(=O)c2ccc(CNC(C)=O)s2)cc1`, the solubility (kinetic) was above 52.1 µg/mL. The figure for `CCOc1ccc(NC(=O)NC2CCCc3ccccc32)cc1` (configuration not stated) is 0.4 µg/mL (≈ 1.29 µM); for `O=C(OCC(=O)N1CCN(S(=O)(=O)c2ccccc2)CC1)C1CCC1` it is 54 µg/mL (≈ 147 µM); for `Cc1noc(NC(=O)c2cccc(Cl)c2Cl)c1C#N` it is 43.1 µg/mL (≈ 146 µM). For `CC(C)c1ccccc1NS(=O)(=O)c1cccs1`, the kinetic solubility worked out at 28.2 µg/mL (≈ 100 µM). With `O=C(NCC1CCCCC1)c1ccc(Br)o1`, the solubility (kinetic) was above 42.9 µg/mL. To `S=C(Nc1cccc(Cl)c1)Nc1ccc2c(c1)OCCO2` belongs 40.4 µg/mL (≈ 126 µM). With `Cc1ccc(C)c(NCc2ccccc2CO)c1`, the solubility (kinetic) is above 36.2 µg/mL. To `N#CCc1ccc(OC(=O)c2cccnc2)cc1` belongs above 35.7 µg/mL; to `Cc1cc(N2CCN(C(=O)/C=C/C(=O)O)CC2)c2ccccc2n1`, 48.6 µg/mL (≈ 149 µM).

`Cc1cccc(C(=O)NCCc2ccccc2)c1` returned a kinetic solubility above 35.9 µg/mL. The figure for `Cc1cccc(OC(C)C(=O)Nc2nc(-c3ccncc3)cs2)c1` (configuration not stated) is 3.4 µg/mL (≈ 10 µM); for `CCN(CC)CCNC(=O)c1ccc(N)cc1.Cl` it is above 40.8 µg/mL. For `O=C(Nc1nc2ccccc2[nH]1)c1ccccc1[N+](=O)[O-]`, the solubility (kinetic) was above 42.3 µg/mL.

With `Cc1cccc(C)c1NC(=O)Cc1cccs1`, the solubility (kinetic) is above 36.8 µg/mL. The figure for `CC(=O)Nc1ccc(C(=O)CN2C(=O)NC3(CCCCCC3)C2=O)c(F)c1` is 33.9 µg/mL (≈ 90.3 µM); for `CC1(C)CC(=O)N(c2cccc(Cl)c2)C(=O)C1` it is above 37.8 µg/mL.

For the compound `CC(C)NC(=O)c1ccc(S(=O)(=O)N(C)C)cc1`, the kinetic solubility is above 40.6 µg/mL.

On to `c1ccc2c3c([nH]c2c1)C1(CCNCC1)NCC3`, for which the kinetic solubility amounted to 34.7 µg/mL (≈ 144 µM). In the case of `O=C(Nc1nccs1)[C@@H]1CCCN1S(=O)(=O)c1ccc(Cl)cc1`, the solubility (kinetic) is 31.5 µg/mL (≈ 84.7 µM). On to `Cc1ccc(NC2CCCN(C(=O)c3cccnc3)C2)cc1C` (configuration not stated), for which the solubility (kinetic) was above 46.4 µg/mL. The figure for `O=c1oc2ccccc2c(Nc2ccccc2)c1CN1CCCCC1` is 44.1 µg/mL (≈ 132 µM); for `Cc1nc(N)c(C#N)c(-c2ccc3c(c2)OCO3)c1C` it is 0.5 µg/mL (≈ 1.87 µM).
